The values that follow come from patent publication US8058284B2, “[4-(6-halo-7-substituted-2,4-dioxo-1,4-dihydro-2H-quinazolin-3-yl)-phenyl]-5-chloro-thiophen-2-yl-sulfonylureas and forms and methods related thereto” (Portola Pharmaceuticals, Inc., priority 2005, dated 2011).

What is called pIC50 is −log10 of the IC50, conventionally taken in molar units. The low end stands for a high IC50, the high end for a low IC50.

Assay [1] addresses T1, P2Y12 receptor on platelets (Homo sapiens, UniProt Q9H244).
T1 construct: endogenous in cells; host or cells: human platelets, apyrase-washed: outdated from hospital blood banks, or fresh
The assay is described as follows: platelet ADP receptor binding assay (ARB): inhibition of [3H]2-MeS-ADP binding to platelets. The following applies: apyrase-washed human platelets. The procedure:
1. The Ability of Candidate Molecules to Inhibit the Binding of [3H]2-MeS-ADP to the P2Y12 Receptor on Platelets was Determined Using a Radioligand Binding Assay.
Utilizing this assay the potency of inhibition of such compounds with respect to [^3H]2-MeS-ADP binding to whole platelets is determined. Under the conditions described in II (3) below, the binding of [^3H]2-MeS-ADP is solely due to the interaction of this ligand with the P2Y12 receptor, in that all the specific binding measured in this assay is compatible with a P2Y12 antagonist (i.e., the specific binding is reduced to background levels by competition with an excess of P2Y12 antagonist, with no competition of binding when a P2Y1 antagonist is pre-incubated with the platelet preparation). […]
A platelet ADP receptor binding assay (ARB) using the tritiated potent agonist ligand [^3H]2-MeS-ADP (Jantzen, H. M. et al. (1999) Thromb. Hemost. 81:111-117) has been adapted to the 96-well microtiter format. […] Total binding is determined in the absence of test compounds. […] The platelet-bound radioactivity on the filtermats is determined in a scintillation counter (Microbeta 1450, Wallac Inc., Gaithersburg, Md.). Specific binding is determined by subtraction of non-specific binding from total binding, and specific binding in the presence of test compounds is expressed as % of specific binding in the absence of test compound dilutions. […]

Assay [2] concerns ADP-induced human platelet aggregation (human platelet-rich plasma). The assay is described as follows: inhibition of ADP-mediated platelet aggregation in platelet-rich plasma (PRP assay). It counts as cell-based. The procedure: Platelet-rich plasma (PRP) is prepared by centrifugation of whole blood at 160×g for 20 minutes at room temperature. […] PPP is prepared by centrifugation of the remaining blood sample (after removal of PRP) for 20 minutes at 800×g. This preparation of PRP can subsequently be used for aggregation assays in either a 96-well plate or standard cuvette aggregometry.
J. Clin. Pathol. […] All steps are performed at room temperature. […] The plates are then agitated for 5 min on a microtiter plate shaker and the 5 minute reading is obtained in the plate reader. […] IC50s were derived by non-linear regression analysis.

pIC50: −log10 of the molar value. Read-outs that look alike come from different tables or passages of the source.

T1 sequence (Q9H244 whole entry): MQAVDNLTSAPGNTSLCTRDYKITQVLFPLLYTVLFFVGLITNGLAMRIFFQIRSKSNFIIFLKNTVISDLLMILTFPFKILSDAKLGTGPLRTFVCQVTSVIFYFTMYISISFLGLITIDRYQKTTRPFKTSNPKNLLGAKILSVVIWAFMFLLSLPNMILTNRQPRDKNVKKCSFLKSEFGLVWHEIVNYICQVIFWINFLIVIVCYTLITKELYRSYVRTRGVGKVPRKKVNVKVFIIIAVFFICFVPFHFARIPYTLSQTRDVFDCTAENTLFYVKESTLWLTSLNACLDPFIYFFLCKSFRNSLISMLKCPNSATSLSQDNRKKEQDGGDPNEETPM

`CNc1cc2[nH]c(=O)n(-c3ccc(NC(=O)NS(=O)(=O)c4ccc(Cl)s4)cc3)c(=O)c2cc1F` [Example 2]: the pIC50 in assay [1] was > 7.30; in assay [2] (Platelet) it was > 5.00.

Take `CNc1cc2[nH]c(=O)n(-c3ccc(NC(=O)NS(=O)(=O)c4ccc(Cl)s4)cc3)c(=O)c2cc1Cl` [Example 3, [4-(6-chloro-7-methylamino-2,4-dioxo-1,4-dihydro-2H-quinazolin-3-yl)-phenyl]-5-chloro-thiophen-2-yl-sulfonylurea]: the pIC50 is 6.30 to 7.30 in assay [1] and 4.52 to 5.00 in assay [2].
